Assay results published in patent US6677333B1, “2H-phthalazin-1-one derivatives and drug containing its derivatives as active ingredient” (Ono Pharmaceutical Co., Ltd., priority 1999, dated 2004).
pIC50: −log10 of the molar value. Structures can show the parent of a compound that is named as a salt.

Target: T1, PARP (Homo sapiens, UniProt P09874)
T1 construct: purchased TREVIGEN
Test: Enzyme assay in vitro (PARP inhibitory activity)
Assay type: biochemical
Settings: PARP (TREVIGEN), activated DNA, 10 minutes reaction, 100% of control = distilled water; example 5 tested as trifluoro acetate
Method: The below procedure was carried out with 96 well plate. The reaction mixture contained 50 mM Tris/HCl (pH 8.0, WAKO), 10 mM MgCl2, 5 mM dithiothreitol (sigma), and 0.5 mg/mL activated DNA in 80 μL. The 10 μL of test compound was added to the reaction mixture and the reaction was started by addition of 10 μL of […] PARP (TREVIGEN). The reaction was terminated at 10 minutes by addition of 100 μL of 20% trichloroacetic acid. The reaction product was collected on a glass fiber filter (GF/C, PACKARD). The radioactivity was measured by topcount (PACKARD). Inhibitory activity of the compound was represented by 50% inhibitory concentration (IC50) calculated 100% of control (distilled water).

T1 sequence (P09874 whole entry): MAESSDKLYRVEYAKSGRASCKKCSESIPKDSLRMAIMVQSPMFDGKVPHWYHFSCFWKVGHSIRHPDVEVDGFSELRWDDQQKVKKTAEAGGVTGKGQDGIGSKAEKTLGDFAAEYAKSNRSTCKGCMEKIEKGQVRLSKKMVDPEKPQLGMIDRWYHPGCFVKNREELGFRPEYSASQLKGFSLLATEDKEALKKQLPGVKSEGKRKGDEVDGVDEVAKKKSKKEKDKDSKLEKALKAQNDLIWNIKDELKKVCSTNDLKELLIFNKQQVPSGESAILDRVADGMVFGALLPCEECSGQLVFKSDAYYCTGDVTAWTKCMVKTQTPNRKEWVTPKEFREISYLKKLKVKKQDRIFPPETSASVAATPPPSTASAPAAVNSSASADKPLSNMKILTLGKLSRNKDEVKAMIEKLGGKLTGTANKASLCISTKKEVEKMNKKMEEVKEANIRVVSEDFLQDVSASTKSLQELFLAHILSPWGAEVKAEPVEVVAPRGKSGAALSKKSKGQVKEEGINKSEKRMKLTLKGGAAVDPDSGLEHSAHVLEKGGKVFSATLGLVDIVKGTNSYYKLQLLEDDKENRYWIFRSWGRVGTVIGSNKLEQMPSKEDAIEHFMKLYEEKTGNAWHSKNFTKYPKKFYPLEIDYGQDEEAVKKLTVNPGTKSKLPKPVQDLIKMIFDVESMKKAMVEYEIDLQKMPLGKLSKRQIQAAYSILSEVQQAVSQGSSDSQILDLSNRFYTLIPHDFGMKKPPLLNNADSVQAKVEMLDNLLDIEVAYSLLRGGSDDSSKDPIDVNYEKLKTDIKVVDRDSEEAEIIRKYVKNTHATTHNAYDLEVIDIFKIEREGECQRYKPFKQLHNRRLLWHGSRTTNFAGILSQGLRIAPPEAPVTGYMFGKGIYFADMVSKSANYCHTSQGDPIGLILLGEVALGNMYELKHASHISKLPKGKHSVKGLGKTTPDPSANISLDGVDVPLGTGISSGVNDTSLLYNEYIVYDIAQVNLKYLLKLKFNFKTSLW

pIC50 | SMILES
7.38 | NCCCCC(=O)Nc1cccc(-c2n[nH]c(=O)c3ccccc23)c1 [compound 5]
7.30 | NCCSCC(=O)Nc1cccc(-c2n[nH]c(=O)c3ccccc23)c1 [5(10), 4-(3-(2-(2-Aminoethylthio)acetylamino)phenyl)-2H-phthalazin-1-one Hydrochloride]
